Tested on: rabbits
Assay: Anti-McGinty assay (antiprogestational activity, test compound plus progesterone)
Assay type: in vivo, rabbit
Parameters: key to McPhail Index, Anti-McGinty Assay, Standard / McPhail Index, Anti-McGinty Assay (Antagonist): McPhail scoring scale for progestational endometrial response
Settings: for McPhail Index, Anti-McGinty Assay (Antagonist): plus progesterone
Method: Progestational activity and antiprogestational activity were determined in rabbits by means of the McGinty test (test compound alone, procedure of McGinty et al., Endocrinology, 24: 829-832 (1939)) or anti-McGinty test (test compound plus progesterone, procedure of Tamara et al., Jpn. J. Fertil Steril 24: 48-81 (1979)). Results were scored according to McPhail (McPhail, J Physiol., 83: 146 (1934)). These are standard procedures known to those skilled in the art. The results of these assays are shown in Tables 4 (agonist activity) and 5 (antagonist activity). […] Physiol, 83: 146 (1934)).

| SMILES | McPhail Index, Anti-McGinty Assay (Antagonist) (dose 0.3 micrograms) | McPhail Index, Anti-McGinty Assay (Antagonist) (dose 3 micrograms) | McPhail Index, Anti-McGinty Assay (Antagonist) (dose 30 micrograms) | antiprogestational activity in the anti-McGinty assay (in words) | agonist/antagonist profile (in words, McGinty and anti-McGinty tests) |
| --- | --- | --- | --- | --- | --- |
| CC1=[N+]([O-])C2(CC1)CCC1C3CCC4=CC(=O)CCC4=C3C(c3ccc(N(C)C)cc3)CC12C (stereo not drawn) [II 4-Me2 N H O H -- CH3, 3',4'-dihydro-11β-(4-(N,N-dimethylamino)phenyl)-5'-methyl-1'-oxo-spiro[estra-4,9-dien-17β,2'(2'H)-pyrrole]-3-one] | 2.03 ± 0.14 | 1.9 ± 0.85 | 0 ± 0 | potent antiprogestin in the anti-McGinty assay | – |
| CN(C)c1ccc([C@H]2C[C@@]3(C)[C@@H](CC[C@]3(CCCO)[N+](=O)[O-])[C@@H]3CCC4=CC(=O)CCC4=C32)cc1 [I 4-Me2 N H O H --(CH2)3 OH, 11β-[4-(N,N-Dimethylamino)phenyl]-17α-(3-hydroxypropyl)-17β-nitroestra-4,9-dien-3-one] | 1.83 ± 0.48 | 1.87 ± 0.98 | 0.43 ± 0.31 | – | – |
| CC(=O)c1ccc([C@H]2C[C@@]3(C)[C@@H](CC[C@]3(CCCO)[N+](=O)[O-])[C@@H]3CCC4=CC(=O)CCC4=C32)cc1 [I 4-CH3 CO H O H --(CH2)3 OH, 11β-(4-Acetylphenyl)-17α-(3-hydroxypropyl)-17β-nitroestra-4,9-dien-3-one] | 2.93 ± 0.12 | 2.43 ± 0.6 | 1.60 ± 0.66 | – | – |
| CC(=O)c1ccc([C@H]2C[C@@]3(C)[C@@H](CC[C@]3(/C=C/CO)[N+](=O)[O-])[C@@H]3CCC4=CC(=O)CCC4=C32)cc1 [I 4-CH3 CO H O H CH=CHCH2 OH, 11β-(4-acetylphenyl)-17α-(E-3-hydroxy-1-propenyl)-17β-nitroestra-4,9-dien-3-one] | 1.53 ± 0.68 | 1.76 ± 0.45 | 2.3 ± 0.0 | – | – |
| CC#C[C@]1([N+](=O)[O-])CC[C@H]2[C@@H]3CCC4=CC(=O)CCC4=C3[C@@H](c3ccc(C(C)=O)cc3)C[C@@]21C [I 4-CH3 CO H O H --CC--CH3, 11β-(4-Acetylphenyl)-17β-nitro-17α-(1-propynyl)estra-4,9-dien-3-one] | 2.173 ± 0.42 | 2.47 ± 0.15 | 0.13 ± 0.12 | – | mixed (agonist/antagonist) profile |
